Test results taken from paper PMC6181319, “Thermodynamic and computational analyses reveal the functional roles of the galloyl group of tea catechins in molecular recognition” (PLoS ONE, 2018).
Read-outs that look alike come from different tables or passages of the source. Marks after values point to notes of the source that are not given here.

Experiments:
[1] = molecular target: T1, human serum albumin (HSA) (Homo sapiens, UniProt P02768); test: Differential scanning calorimetry (DSC), thermal stability of HSA–ligand complexes; conditions: for Tm: DSC, HSA 50 μM, ligand 500 μM, 50 mM sodium phosphate pH 6.8, HSA alone 68.6 ± 0.1; for ΔTm at 500 µM: human, pH 6.8
T1 sequence (P02768 25-609): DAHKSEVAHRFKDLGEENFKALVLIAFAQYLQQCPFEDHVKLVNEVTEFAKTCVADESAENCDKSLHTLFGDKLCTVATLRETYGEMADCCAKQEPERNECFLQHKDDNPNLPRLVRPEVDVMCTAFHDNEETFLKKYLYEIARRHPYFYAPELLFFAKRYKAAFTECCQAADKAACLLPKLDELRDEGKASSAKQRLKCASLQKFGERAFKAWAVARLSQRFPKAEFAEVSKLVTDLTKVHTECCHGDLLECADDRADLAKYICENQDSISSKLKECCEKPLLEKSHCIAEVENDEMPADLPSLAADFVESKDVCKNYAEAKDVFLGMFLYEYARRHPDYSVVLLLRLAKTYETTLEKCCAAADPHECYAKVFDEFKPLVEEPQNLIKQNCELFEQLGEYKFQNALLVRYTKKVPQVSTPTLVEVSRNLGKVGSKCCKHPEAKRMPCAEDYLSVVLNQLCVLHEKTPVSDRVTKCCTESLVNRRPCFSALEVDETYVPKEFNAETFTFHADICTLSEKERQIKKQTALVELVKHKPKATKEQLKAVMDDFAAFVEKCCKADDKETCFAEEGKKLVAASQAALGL
Description: The thermal stabilities of HSA and the HSA–ligand complexes were determined by differential scanning calorimetry in a VP-DSC autosampler instrument (GE Healthcare). The cell was heated from 303 to 363 K at a rate of 1 K min^−1. The concentrations of HSA and the ligands were 50 and 500 μM, respectively, in a buffer composed of 50 mM sodium phosphate (pH 6.8). The data analysis was carried out with the Origin software (ver. 7) using a two-state model.

[2] = molecular target: T1, human serum albumin (HSA); test: Isothermal titration calorimetry (ITC) of binding of catechins and analogs to HSA; parameters: purchased Sigma-Aldrich Japan (Tokyo, Japan); conditions: for change of binding affinity with addition of 0.2 M NaCl: 0.2 M NaCl versus no NaCl
Description: The binding of the catechins and its analogs to HSA was examined in a VP-ITC instrument (Microcal Northampton, MA). […] The data were analyzed with the Origin software (ver. 7) by means of a single-binding-site model. The thermodynamic parameters were obtained from three replicate titrations, where the dilution heats of the ligands were subtracted.

site I of HSA = molecular target: T2, site I of HSA (Homo sapiens, UniProt P02768); test: ITC competition assay with warfarin (site I marker); type: binding; conditions: HSA 50 μM, catechin 500 μM, warfarin 500 μM titrated, pH 6.8, 1% DMSO
T2 construct: purchased Sigma-Aldrich Japan (Tokyo, Japan)
T2 sequence (P02768 25-609): as above
Description: To obtain information about the HSA binding site of catechins, we carried out competition assays using ITC. Warfarin was used as a marker for monitoring site I of HSA. […] Warfarin was titrated into the cell containing either HSA or an HSA-EGCg complex at 180-s intervals with constant stirring at 307 rpm. The total amount of heat obtained for each measurement was taken as the total heat quantity (ΔQ), and we verified whether warfarin and the catechins bound to the same site by comparing the ΔQ from the interaction between HSA and warfarin. The binding inhibition rate was defined by the equation belowcalculated as follows: […]

[3] = human serum albumin (HSA) 50 µM in buffer
[4] = S1 Table, ITC binding affinity listed beside Tm, read-out: KD
[5] = Table 1, ITC, 298 K, 50 mM sodium phosphate pH 6.8
[6] = Table 1, ITC, 298 K, 50 mM sodium phosphate pH 6.8, HSA 50 μM, single-binding-site model
[7] = Table 1, ITC, 298 K, 50 mM sodium phosphate pH 6.8, read-out: KD
[8] = S2 Table, NaCl 0.2 M, read-out: KD
[9] = Table 2, methylated catechin derivatives, ITC, 298 K

For Oc1cc(O)c2c(c1)O[C@@H](c1ccc(O)c(O)c1)[C@H](O)C2 [C, (+)-catechin], the Tm [1] was 68.5 ± 0.1 °C, the ΔTm at 500 µM [1, 3] was -0.1 °C and the Kd [2, 4] was 5 ± 8.6 µM. The ΔH/ΔG ([2]; Table 1, ITC, 298 K) was 4%, the ΔG [2, 5] was -7.1 ± 0.6 kcal/mol and the ΔH [2, 5] was -0.3 ± 0.1 kcal/mol. The “−TΔS” value [2, 5] was -6.8 ± 0.7 kcal/mol, the “N (number of binding sites)” value [2, 6] was 1.0 ± 0.2 and the Kd [2, 7] was 5 ± 8.6 µM.

For O=C(O[C@@H]1Cc2c(O)cc(O)cc2O[C@H]1c1ccc(O)c(O)c1)c1cc(O)c(O)c(O)c1 [Cg, (−)-catechin gallate], the Tm [1] was 71.7 ± 0.1 °C, the ΔTm at 500 µM [1, 3] was 3.1 °C and the “thermodynamic profile of binding (enthalpy-driven or entropy-driven)” value (“thermodynamic profile of binding” for short) ([2]; ITC, 298 K) was “entropy-driven”. The Kd [2, 4] was 3.5 ± 0.5 µM, the ΔH/ΔG ([2]; Table 1, ITC, 298 K) was 38% and the ΔG [2, 5] was -7.4 ± 0.1 kcal/mol. For the same molecule, the ΔH [2, 5] was -2.8 ± 0.6 kcal/mol, the “−TΔS” value [2, 5] was -4.6 ± 0.7 kcal/mol and the “N (number of binding sites)” value [2, 6] was 1.0 ± 0.1. The Kd [2, 7] was 3.5 ± 0.5 µM.

Oc1cc(O)c2c(c1)O[C@H](c1ccc(O)c(O)c1)[C@H](O)C2 [EC, (−)-epicatechin] was tested, and the Tm [1] was 68.7 ± 0.3 °C, the ΔTm at 500 µM [1, 3] was 0 °C and the “change of binding affinity with addition of 0.2 M NaCl” value (shortened to “change of binding affinity”) ([2]; ITC) was “increased”. For the same molecule, the “thermodynamic profile of binding” value ([2]; ITC, 298 K) was “entropy-driven”, the Kd [2, 4] was 49 ± 18 µM and the Kd ([2]; S2 Table, NaCl 0 M, read-out: KD) was 48.7 µM. For the same molecule, the Kd [2, 8] was 0.7 µM, the ΔH/ΔG ([2]; Table 1, ITC, 298 K) was 13% and the ΔG [2, 5] was -5.8 ± 0.2 kcal/mol. The ΔH [2, 5] was -0.8 ± 0.2 kcal/mol, the “−TΔS” value [2, 5] was -5.1 ± 0.4 kcal/mol and the “N (number of binding sites)” value [2, 6] was 1.0 ^b. For the same molecule, the Kd [2, 7] was 49 ± 18 µM.

In the case of O=C(O[C@@H]1Cc2c(O)cc(O)cc2O[C@@H]1c1ccc(O)c(O)c1)c1cc(O)c(O)c(O)c1 [ECg, (−)-epicatechin gallate], the Tm [1] is reported as 72.2 ± 0.1 °C, the ΔTm at 500 µM [1, 3] is reported as 3.5 °C and the “change of binding affinity” value ([2]; ITC) is reported as “decreased”. For the same molecule, the “thermodynamic profile of binding” value ([2]; ITC, 298 K) was “enthalpy-driven”, the Kd [2, 4] was 1.1 ± 0.1 µM and the Kd [2, 8] was 3.7 µM. For the same molecule, the ΔH/ΔG ([2]; Table 1, ITC, 298 K) was 63%, the ΔG [2, 5] was -8.1 ± 0.1 kcal/mol and the ΔH [2, 5] was -5.1 ± 0.5 kcal/mol. For the same molecule, the “−TΔS” value [2, 5] was -3.1 ± 0.5 kcal/mol, the “N (number of binding sites)” value [2, 6] was 1.0 ± 0.1 and the Kd [2, 7] was 1.1 ± 0.1 µM.

For Oc1cc(O)c2c(c1)O[C@H](c1cc(O)c(O)c(O)c1)[C@H](O)C2 [EGC, (−)-epigallocatechin], the “binding site compared with warfarin” value (site I of HSA) was “identical”, the Tm [1] was 68.8± 0.2 °C and the ΔTm at 500 µM [1] was 0.2 °C. For the same molecule, the “change of binding affinity” value ([2]; ITC) was “increased”, the “thermodynamic profile of binding” value ([2]; ITC, 298 K) was “entropy-driven” and the Kd ([2]; KD, S1 Table, ITC binding affinity listed beside Tm) was 20 ± 16 µM. For the same molecule, the Kd ([2]; KD, S2 Table, NaCl 0 M) was 19.5 µM, the Kd ([2]; KD, S2 Table, NaCl 0.2 M) was 6.7 µM and the Kd ([2]; KD, Table 1, ITC, 298 K, 50 mM sodium phosphate pH 6.8) was 20 ± 16 µM. It also gave a ΔH/ΔG ([2]; Table 1, ITC, 298 K) of 10%, a ΔG [2, 5] of -6.3 ± 0.4 kcal/mol and a ΔH [2, 5] of -0.6 ± 0.4 kcal/mol. The “−TΔS” value [2, 5] was -5.8 ± 0.7 kcal/mol and the “N (number of binding sites)” value [2, 6] was 1.0 ± 0.2.

In the case of O=C(O[C@@H]1Cc2c(O)cc(O)cc2O[C@@H]1c1cc(O)c(O)c(O)c1)c1cc(O)c(O)c(O)c1 [EGCg, (−)-epigallocatechin gallate], the “binding site compared with warfarin” value (site I of HSA) is reported as “identical”, the Tm [1] is reported as 71.4 ± 0.3 °C and the ΔTm at 500 µM [1, 3] is reported as 2.7 °C. For the same molecule, the “change of binding affinity” value ([2]; ITC) was “decreased”, the “thermodynamic profile of binding” value ([2]; ITC, 298 K) was “enthalpy-driven” and the Kd [2, 4] was 2.2 ± 0.3 µM. For the same molecule, the Kd [2, 8] was 27.3 µM, the N ([2]; S3 Table, temperature 288 K) was 1.1±0.1 and the ΔG ([2]; S3 Table, temperature 288 K) was -7.4 ± 0.1 kcal/mol. For the same molecule, the ΔH ([2]; S3 Table, temperature 288 K) was -3.9 ± 0.5 kcal/mol, the “−TΔS” value ([2]; S3 Table, temperature 288 K) was -3.5 ± 0.5 kcal/mol and the Kd ([2]; S3 Table, temperature 288 K, read-out: KD) was 2.3 ± 0.1 µM. The N ([2]; S3 Table, temperature 293 K) was 1.1±0.1, the ΔG ([2]; S3 Table, temperature 293 K) was -7.6 ± 0.7 kcal/mol and the ΔH ([2]; S3 Table, temperature 293 K) was -4.7 ± 0.7 kcal/mol. For the same molecule, the “−TΔS” value ([2]; S3 Table, temperature 293 K) was -2.9 ± 0.8 kcal/mol, the Kd ([2]; S3 Table, temperature 293 K, read-out: KD) was 2.1 ± 0.7 µM and the N ([2]; S3 Table, temperature 298 K) was 1.1±0.1. The ΔG ([2]; S3 Table, temperature 298 K) was -7.8 ± 0.4 kcal/mol, the ΔH ([2]; S3 Table, temperature 298 K) was -5.7 ± 0.7 kcal/mol and the “−TΔS” value ([2]; S3 Table, temperature 298 K) was -2.1 ± 0.6 kcal/mol. For the same molecule, the Kd ([2]; S3 Table, temperature 298 K, read-out: KD) was 2 ± 0.4 µM, the N ([2]; S3 Table, temperature 303 K) was 1.1±0.1 and the ΔG ([2]; S3 Table, temperature 303 K) was -7.9 ± 0.8 kcal/mol. The ΔH ([2]; S3 Table, temperature 303 K) was -6.1 ± 0.2 kcal/mol, the “−TΔS” value ([2]; S3 Table, temperature 303 K) was -1.8 ± 0.3 kcal/mol and the Kd ([2]; S3 Table, temperature 303 K, read-out: KD) was 2.1 ± 0.8 µM. It also gave a ΔH/ΔG ([2]; Table 1, ITC, 298 K) of 61%, a ΔG [2, 5] of -7.7 ± 0.1 kcal/mol and a ΔH [2, 5] of -4.7 ± 0.6 kcal/mol. For the same molecule, the “−TΔS” value [2, 5] was -3.0 ± 0.6 kcal/mol, the “N (number of binding sites)” value [2, 6] was 1.1 ± 0.1 and the Kd [2, 7] was 2.2 ± 0.3 µM. For the same molecule, the ΔG [2, 9] was -7.7 ± 0.1 kcal/mol, the “−TΔS” value [2, 9] was -3.0 ± 0.6 kcal/mol and the “N (number of binding sites)” value ([2]; Table 2, methylated catechin derivatives, ITC, 298 K, 50 mM sodium phosphate pH 6.8) was 1.1 ± 0.1. The Kd ([2]; Table 2, methylated catechin derivatives, ITC, 298 K, 50 mM sodium phosphate pH 6.8, read-out: KD) was 2.2 ± 0.3 µM and the “ΔCp (change in heat capacity)” value ([2]; slope of ΔH versus temperature, 288 to 303 K) was −148 cal mol^−1 K^−1.
